Results taken from US20200031784A1, “OZANIMOD ADDITION SALT CRYSTAL, PREPARATION METHOD, PHARMACEUTICAL COMPOSITION, AND USES” (Solipharma LLC, priority 2017, published 2020).
Structures can show the parent of a compound that is named as a salt. Where two headings read alike, the source gives them in different places.

Tests used:
Format in all cases: physicochemical
[1] = Phase stability in aqueous system, slurry for 5 days (Comparative Example 2); details: slurry 5 days
Experimental: The phase stability of crystalline forms of ozanimod salts of Examples 1 to 124 and ozanimod hydrochloride crystalline form of Preparation Example 2 were tested in aqueous system.

[2] = Water solubility of crystalline ozanimod salt forms (Comparative Example 1)
Experimental: The water solubility of crystalline forms of ozanimod salts of Examples 1 to 124 and ozanimod hydrochloride of Preparation Example 2 were tested.

[3] = Isothermal adsorption curve (dynamic vapor sorption), weight change; details: in the range of 0% to 50%
Experimental: Dynamic vapor sorption data and isothermal sorption data are collected on TA Instruments Q5000 TGA. A sample of 1 to 10 mg is usually placed in a platinum pan; and the TA software records the change in weight of the sample during relative humidity from 0% to 80% to 0%. Depending on the specifics of the sample, different adsorption and desorption steps are also applied to the sample.

Row | SMILES | Slurry for 5 days in ethanol/water (1:1) (solid state after slurry) [1] | Slurry for 5 days in water (solid state after slurry) [1] | 25° C. water solubility ([2]; 25° C.) [µg/mL] | 37° C. water solubility ([2]; 37° C.) [µg/mL] | solubility ([2]; 25° C., read-out: 25° C. water solubility) [µg/mL] | solubility ([2]; 37° C., read-out: 37° C. water solubility) [µg/mL] | weight change according to the isothermal adsorption curve [3] [%]
1 | CC(C)Oc1ccc(-c2nc(-c3cccc4c3CCC4NCCO)no2)cc1C#N.O=S(=O)(O)O (stereo not drawn) [Ozanimod hydrosulfate Form 1] | Crystalline | Crystalline |  |  |  |  | 
2 | CC(C)Oc1ccc(-c2nc(-c3cccc4c3CCC4NCCO)no2)cc1C#N.CC(C)Oc1ccc(-c2nc(-c3cccc4c3CCC4NCCO)no2)cc1C#N.O=C(O)C=CC(=O)O (stereo not drawn) [Ozanimod hemi-fumarate Form 1] | Crystalline | Crystalline |  |  |  |  | 
3 | CC(C)Oc1ccc(-c2nc(-c3cccc4c3CC[C@@H]4NCCO)no2)cc1C#N.O=C(O)/C=C\C(=O)O [Ozanimod maleate Form 1] | Crystalline | Crystalline | 1200 | 5290 |  |  | 
4 | CC(C)Oc1ccc(-c2nc(-c3cccc4c3CC[C@@H]4NCCO)no2)cc1C#N.O=C(O)/C=C/C(=O)O [Ozanimod fumarate Form 1] | Crystalline | Crystalline | 2340 | 4550 |  |  | 
5 | CC(C)Oc1ccc(-c2nc(-c3cccc4c3CC[C@@H]4NCCO)no2)cc1C#N [Ozanimod hydrochloride form, reference compound] | Weak crystallinity | Amorphous |  |  | 610 | 2450 | 0.14
6 | CC(C)Oc1ccc(-c2nc(-c3cccc4c3CCC4NCCO)no2)cc1C#N.CC(C)Oc1ccc(-c2nc(-c3cccc4c3CCC4NCCO)no2)cc1C#N.O=S(=O)(O)O (stereo not drawn) [Ozanimod hemisulfate Form 1] | Crystalline | Crystalline |  |  |  |  | 
7 | CC(C)Oc1ccc(-c2nc(-c3cccc4c3CC[C@@H]4NCCO)no2)cc1C#N.O=P(O)(O)O [Ozanimod dihydrogen phosphate Form 1] | Crystalline | Crystalline | 2540 | 7710 |  |  | 
8 | CC(C)Oc1ccc(-c2nc(-c3cccc4c3CC[C@@H]4NCCO)no2)cc1C#N.CS(=O)(=O)O [Ozanimod mesylate Form 1] | Crystalline | Crystalline | 17600 | 53820 |  |  | 
9 | CC(C)Oc1ccc(-c2nc(-c3cccc4c3CCC4NCCO)no2)cc1C#N.O=C(O)CC(O)(CC(=O)O)C(=O)O (stereo not drawn) [Ozanimod citrate Form 1] | Crystalline | Crystalline |  |  |  |  | 
10 | CC(C)Oc1ccc(-c2nc(-c3cccc4c3CC[C@@H]4NCCO)no2)cc1C#N.CC(C)Oc1ccc(-c2nc(-c3cccc4c3CC[C@@H]4NCCO)no2)cc1C#N.O=C(O)C[C@H](O)C(=O)O [Ozanimod hemi-L-malate Form 1] | Crystalline | Crystalline | 10550 | 22620 |  |  | 
11 | CC(C)Oc1ccc(-c2nc(-c3cccc4c3CC[C@@H]4NCCO)no2)cc1C#N.O=C(O)C(O)C(O)C(=O)O [Ozanimod L-tartrate Form 1] | Crystalline | Crystalline |  |  |  |  | 
12 | CC(C)Oc1ccc(-c2nc(-c3cccc4c3CC[C@@H]4NCCO)no2)cc1C#N.O=S(=O)(O)c1ccccc1 [Ozanimod besylate Form 1] | Crystalline | Crystalline |  |  |  |  | 0.05
13 | Br.CC(C)Oc1ccc(-c2nc(-c3cccc4c3CC[C@@H]4NCCO)no2)cc1C#N [Ozanimod hydrobromide Form 1] | Crystalline | Crystalline | 780 | 3490 |  |  | 
